pIC50: −log10 of the molar value. Converted amounts (≈) assume the structure as drawn.
How the values were obtained:
[1] = system: BCRP; assay: in vitro; conditions: dog
Description: Efflux ratio of apparent permeability across basal to apical side over apical to basal side in dog MDCK-BCRP cells at 1 uM measured after 1 day by LC-MS/MS analysis

[2] = biological target: Serine/threonine-protein kinase Chk2 (Homo sapiens, UniProt O96017); assay: biochemical
Description: Inhibition of N-terminal GST-fused human full length CHK2 (1 to 543 residues) expressed in baculovirus-infected Sf21 cells using STK1 S1 as substrate preincubated for 30 mins in presence of ATP followed by MgCl2 addition and measured after 60 mins by TR-FRET assay

[3] = system: MDR1; assay: in vitro; conditions: dog, MDCK-MDR1
Description: Efflux ratio of apparent permeability across basal to apical side over apical to basal side in dog MDCK-MDR1 cells at 1 uM measured after 1 day by LC-MS/MS analysis

[4] = biological target: T1, Serine/threonine-protein kinase Chk1 (Homo sapiens, UniProt O14757); assay: Inhibition of N-terminal GST-fused human full length CHK1 (1 to 476 residues) expressed in baculovirus-infected Sf21 cells using STK1 S1 as substrate preincubated for 30 mins in presence of ATP followed by MgCl2 addition and measured after 60 mins by TR-FRET assay
T1 sequence (O14757 whole entry): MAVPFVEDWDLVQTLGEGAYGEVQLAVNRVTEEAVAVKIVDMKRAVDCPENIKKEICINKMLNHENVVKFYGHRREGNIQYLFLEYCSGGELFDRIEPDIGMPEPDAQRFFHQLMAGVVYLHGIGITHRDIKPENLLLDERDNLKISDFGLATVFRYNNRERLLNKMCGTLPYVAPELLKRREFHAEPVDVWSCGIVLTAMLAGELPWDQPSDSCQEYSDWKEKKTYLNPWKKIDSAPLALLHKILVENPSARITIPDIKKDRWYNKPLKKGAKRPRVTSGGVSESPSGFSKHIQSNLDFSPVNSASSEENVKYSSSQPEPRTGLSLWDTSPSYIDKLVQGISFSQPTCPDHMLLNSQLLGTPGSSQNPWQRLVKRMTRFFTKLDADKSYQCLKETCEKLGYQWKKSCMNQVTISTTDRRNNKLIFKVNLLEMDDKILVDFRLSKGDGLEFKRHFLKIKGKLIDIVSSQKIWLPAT

[5] = Plasma concentration required to achieve 50% in vivo inhibition of CHK1 assessed as accumulation of CHK1 phosphorylation at Ser345 residue in tumors in po dosed GBM LN-229 CDX NOD/SCID mouse model; format: organism-based; conditions: LN-229, Plasma
[6] = system: GBM; assay: Antitumor activity against human patient-derived GBM cells implanted in orthotopic NOG mouse model assessed as lifespan of animal's survival at 30 mg/kg, po qd for 28 days (reference value: 25.5 days); format: functional; conditions: time 28 day
[7] = system: GBM; assay: Antitumor activity against human patient-derived GBM cells implanted in orthotopic NOG mouse model assessed as lifespan of animal's survival at 100 mg/kg, po qd with dosing schedule of 2 days on and 11 days off for 28 days (reference value: 25.5 days); format: functional; conditions: time 28 day
[8] = biological target: T1, Serine/threonine-protein kinase Chk1; assay: Inhibition of CHK1 in neocarzinostatin-stimulated human SW620 cells assessed as inhibition of CHK1 phosphorylation at Ser296 residue incubated for 2 hrs by sandwich ELISA; format: cell-based
[9] = biological target: Voltage-dependent L-type calcium channel subunit alpha-1C (Homo sapiens, UniProt Q13936); assay: Inhibition of human Cav1.2 transfected in CHO cells by automated electrophysiological analysis; format: cell-based
Voltage-dependent L-type calcium channel subunit alpha-1C, sequence (Q13936 whole entry): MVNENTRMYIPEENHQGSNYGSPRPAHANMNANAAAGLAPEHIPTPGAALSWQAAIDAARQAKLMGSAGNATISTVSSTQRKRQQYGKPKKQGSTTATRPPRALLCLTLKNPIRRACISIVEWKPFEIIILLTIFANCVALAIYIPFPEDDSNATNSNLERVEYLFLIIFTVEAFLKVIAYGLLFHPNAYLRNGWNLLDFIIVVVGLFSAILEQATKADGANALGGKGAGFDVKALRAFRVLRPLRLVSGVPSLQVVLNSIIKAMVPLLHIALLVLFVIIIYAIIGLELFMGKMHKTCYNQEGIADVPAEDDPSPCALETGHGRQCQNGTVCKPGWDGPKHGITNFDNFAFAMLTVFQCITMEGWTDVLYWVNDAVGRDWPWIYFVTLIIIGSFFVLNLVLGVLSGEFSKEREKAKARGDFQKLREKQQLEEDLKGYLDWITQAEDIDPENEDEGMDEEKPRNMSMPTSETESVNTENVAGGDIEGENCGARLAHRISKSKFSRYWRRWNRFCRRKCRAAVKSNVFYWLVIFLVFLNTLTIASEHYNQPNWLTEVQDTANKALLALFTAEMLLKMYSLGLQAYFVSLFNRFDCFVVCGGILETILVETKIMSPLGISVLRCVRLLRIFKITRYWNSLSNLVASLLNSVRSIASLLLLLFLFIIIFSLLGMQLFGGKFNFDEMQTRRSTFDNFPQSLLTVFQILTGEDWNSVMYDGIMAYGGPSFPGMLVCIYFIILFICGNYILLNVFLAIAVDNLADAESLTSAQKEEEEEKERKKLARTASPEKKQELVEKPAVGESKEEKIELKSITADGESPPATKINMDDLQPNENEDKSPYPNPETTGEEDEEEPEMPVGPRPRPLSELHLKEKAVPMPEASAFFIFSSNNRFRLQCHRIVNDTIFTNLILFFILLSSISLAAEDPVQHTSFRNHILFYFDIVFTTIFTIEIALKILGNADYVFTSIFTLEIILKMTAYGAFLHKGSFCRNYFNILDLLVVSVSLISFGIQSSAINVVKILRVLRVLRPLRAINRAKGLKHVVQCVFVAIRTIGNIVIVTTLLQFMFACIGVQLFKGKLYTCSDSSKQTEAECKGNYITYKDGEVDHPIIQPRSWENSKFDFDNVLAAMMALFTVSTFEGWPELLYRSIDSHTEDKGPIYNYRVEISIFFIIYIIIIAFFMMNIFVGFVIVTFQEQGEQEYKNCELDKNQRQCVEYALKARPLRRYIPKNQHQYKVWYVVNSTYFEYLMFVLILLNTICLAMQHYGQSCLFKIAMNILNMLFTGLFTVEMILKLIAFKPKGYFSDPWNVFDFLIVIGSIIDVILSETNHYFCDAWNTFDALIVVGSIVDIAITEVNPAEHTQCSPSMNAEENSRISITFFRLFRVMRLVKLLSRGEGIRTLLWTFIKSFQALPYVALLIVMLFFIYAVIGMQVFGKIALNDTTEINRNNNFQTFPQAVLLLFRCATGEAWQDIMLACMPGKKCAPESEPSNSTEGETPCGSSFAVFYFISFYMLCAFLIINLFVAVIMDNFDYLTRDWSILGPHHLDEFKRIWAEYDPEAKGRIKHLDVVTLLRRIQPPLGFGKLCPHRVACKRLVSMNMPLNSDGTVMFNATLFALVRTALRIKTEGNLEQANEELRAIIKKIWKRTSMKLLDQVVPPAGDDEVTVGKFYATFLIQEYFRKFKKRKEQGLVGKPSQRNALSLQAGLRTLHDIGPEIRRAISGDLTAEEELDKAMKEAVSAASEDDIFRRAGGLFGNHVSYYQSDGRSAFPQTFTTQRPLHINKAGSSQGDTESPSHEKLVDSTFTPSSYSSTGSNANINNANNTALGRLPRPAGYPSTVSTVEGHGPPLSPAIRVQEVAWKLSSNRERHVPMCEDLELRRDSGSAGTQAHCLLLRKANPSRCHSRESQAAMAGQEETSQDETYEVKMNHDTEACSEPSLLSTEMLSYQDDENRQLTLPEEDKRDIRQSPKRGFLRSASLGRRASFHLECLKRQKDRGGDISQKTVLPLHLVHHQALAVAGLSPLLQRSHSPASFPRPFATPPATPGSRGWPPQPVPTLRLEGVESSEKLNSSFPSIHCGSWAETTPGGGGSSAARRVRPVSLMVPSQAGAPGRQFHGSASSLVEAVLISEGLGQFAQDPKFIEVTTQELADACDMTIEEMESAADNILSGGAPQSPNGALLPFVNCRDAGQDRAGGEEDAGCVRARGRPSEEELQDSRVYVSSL

[10] = system: GBM; assay: Antitumor activity against human patient-derived GBM cells implanted in orthotopic NOG mouse model assessed as lifespan of animal's survival at 50 mg/kg, po qd with dosing schedule of 3 days on and 4 days off for 28 days (reference value: 25.5 days); format: functional; conditions: time 28 day
[11] = biological target: Sodium channel protein type 5 subunit alpha (Homo sapiens, UniProt Q14524); assay: Inhibition of human Nav1.5 transfected in CHO cells by automated electrophysiological analysis; format: cell-based
[12] = Apparent permeability of the compound in dog MDCK-MDR1 cells at 1 uM measured after 1 day by LC-MS/MS analysis; format: ADME, cell-based, Canis lupus familiaris
[13] = biological target: T1, Serine/threonine-protein kinase Chk1; assay: Inhibition of human full length recombinant CHK1 using KKKVSRSGLYRSPSMPENLNRPR as substrate in presence of [gamma-33P]ATP incubated for 40 mins by radiometric assay
[14] = system: GBM; assay: Antitumor activity against human patient-derived GBM cells implanted in orthotopic NOG mouse model assessed as lifespan of animal's survival at 20 mg/kg, ip qd with dosing schedule of 5 days on and 2 days off for 28 days (reference value: 25.5 days); format: functional; conditions: time 28 day
[15] = in vivo; conditions: Sprague-Dawley, rat, brain and plasma, iv, 1 mg/kg
Description: Unbound brain-to-plasma concentration ratio in Sprague-Dawley rat at 1 mg/kg, iv measured after 15 mins by rapid equilibrium dialysis method

[16] = Intrinsic clearance in human liver microsomes measured per mg protein; format: ADME, Microsome; conditions: read-out: CLH
[17] = Intrinsic clearance in rat liver microsomes measured per mg protein; format: ADME, Microsome; conditions: read-out: CLH
[18] = in vitro; conditions: dog, MDCK
Description: Apparent permeability of the compound across apical to basolateral side in dog MDCK cells at 1 uM measured after 1 day by LC-MS/MS analysis

[19] = Kinetic aqueous solubility of the compound at 250 uM measured after 2 hrs by RP-UPLC-DAD analysis; format: physicochemical; conditions: buffer, read-out: Kinetic_solubility
[20] = biological target: Voltage-gated inwardly rectifying potassium channel KCNH2 (Homo sapiens, UniProt Q12809); assay: Inhibition of hERG expressed in HEK cells by electrophysiology; format: toxicity, cell-based
Voltage-gated inwardly rectifying potassium channel KCNH2, sequence (Q12809 whole entry): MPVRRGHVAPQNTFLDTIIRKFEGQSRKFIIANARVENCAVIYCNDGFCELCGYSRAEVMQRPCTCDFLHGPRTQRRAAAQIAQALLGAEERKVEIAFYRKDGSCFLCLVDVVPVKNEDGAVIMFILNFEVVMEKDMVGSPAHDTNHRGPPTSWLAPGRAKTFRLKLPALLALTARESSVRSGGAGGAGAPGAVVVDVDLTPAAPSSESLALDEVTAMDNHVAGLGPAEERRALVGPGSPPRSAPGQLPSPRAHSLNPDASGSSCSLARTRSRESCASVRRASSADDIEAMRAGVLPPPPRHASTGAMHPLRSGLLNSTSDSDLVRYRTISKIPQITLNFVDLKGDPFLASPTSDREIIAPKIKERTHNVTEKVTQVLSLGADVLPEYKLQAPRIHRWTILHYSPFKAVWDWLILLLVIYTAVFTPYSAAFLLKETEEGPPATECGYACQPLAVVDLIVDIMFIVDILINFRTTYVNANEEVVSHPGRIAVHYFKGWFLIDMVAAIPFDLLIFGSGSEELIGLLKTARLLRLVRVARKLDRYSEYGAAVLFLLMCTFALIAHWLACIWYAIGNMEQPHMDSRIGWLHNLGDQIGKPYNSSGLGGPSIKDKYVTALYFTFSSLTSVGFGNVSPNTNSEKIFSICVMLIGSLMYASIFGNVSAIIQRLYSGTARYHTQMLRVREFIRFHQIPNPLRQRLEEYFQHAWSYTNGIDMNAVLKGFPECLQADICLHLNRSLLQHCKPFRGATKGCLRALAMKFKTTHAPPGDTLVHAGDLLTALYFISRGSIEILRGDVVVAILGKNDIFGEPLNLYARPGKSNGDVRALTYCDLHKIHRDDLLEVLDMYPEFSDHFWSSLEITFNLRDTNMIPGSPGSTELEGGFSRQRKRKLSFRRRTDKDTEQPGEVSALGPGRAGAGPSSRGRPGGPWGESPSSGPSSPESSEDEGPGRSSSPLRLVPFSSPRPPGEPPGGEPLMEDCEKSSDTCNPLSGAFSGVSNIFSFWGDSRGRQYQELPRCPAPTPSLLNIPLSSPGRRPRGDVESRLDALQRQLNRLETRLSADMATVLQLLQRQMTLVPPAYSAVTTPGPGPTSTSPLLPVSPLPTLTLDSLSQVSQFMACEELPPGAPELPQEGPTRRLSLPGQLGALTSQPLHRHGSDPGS

Serine/threonine-protein kinase Chk2, sequence (O96017 whole entry): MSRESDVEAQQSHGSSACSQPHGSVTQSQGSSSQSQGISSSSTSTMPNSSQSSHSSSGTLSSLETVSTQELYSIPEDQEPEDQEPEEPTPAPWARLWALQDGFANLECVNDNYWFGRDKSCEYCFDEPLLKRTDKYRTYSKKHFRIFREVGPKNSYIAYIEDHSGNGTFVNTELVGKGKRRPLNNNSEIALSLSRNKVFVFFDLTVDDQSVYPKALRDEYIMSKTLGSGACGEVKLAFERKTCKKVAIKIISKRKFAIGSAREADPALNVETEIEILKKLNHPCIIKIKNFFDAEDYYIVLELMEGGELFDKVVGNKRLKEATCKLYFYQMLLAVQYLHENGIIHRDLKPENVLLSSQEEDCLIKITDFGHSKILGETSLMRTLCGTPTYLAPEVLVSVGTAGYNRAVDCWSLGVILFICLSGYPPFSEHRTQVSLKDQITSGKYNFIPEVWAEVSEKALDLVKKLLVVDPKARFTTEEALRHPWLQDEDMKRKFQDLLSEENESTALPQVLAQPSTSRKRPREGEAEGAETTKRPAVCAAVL

| Structure (SMILES) | efflux ratio at 24 h, 1 µM [1] | pIC50 [2] | efflux ratio at 24 h, 1 µM [3] | pIC50 [4] | further results |
| --- | --- | --- | --- | --- | --- |
| CN1CC[C@@H]2CN(c3ccc(-n4cnc(Nc5cnc(C#N)cn5)c4)cc3)C[C@@H]21 | 2.7 | < 5.00 | 2.5 | 7.77 | – |
| CN(C)[C@@H]1CCN(c2ccc(-n3cnc(Nc4cnc(C#N)cn4)c3)cc2)C1 | – | – | – | 8.40 | pIC50 [5]: 6.68; Survival [6]: 34 days; Survival [7]: 50 days; pIC50 [8]: 6.35; pIC50 [9]: < 4.52; Survival [10]: 39.5 days; pIC50 [11]: < 4.52 |
| C[C@@H]1CN(c2ccc(-n3cnc(Nc4cnc(C#N)cn4)c3)cc2)C[C@@H]1N(C)C | – | < 5.00 | – | 7.80 | – |
| CN(C)[C@H]1CCN(c2ccc(-n3cnc(Nc4cnc(C#N)cn4)c3)cc2)C1 | – | – | – | 7.17 | – |
| N#Cc1cnc(Nc2cn(C(F)F)cn2)cn1 | – | – | 0.9 | – | Papp at 24 h, 1 µM [12]: 66 ×10⁻⁶ cm/s; pIC50 [13]: 5.52 |
| N#Cc1cnc(Nc2cn(-c3ccccc3)cn2)cn1 | 1 | – | 0.6 | – | pIC50 [13]: 6.26 |
| Cn1nnc2c(C(N)=O)ncn2c1=O [TEMOZOLOMIDE] | – | – | – | – | Survival [14]: 43 days |
| CCN1CCN(c2ccc(-n3cnc(Nc4cnc(C#N)cn4)c3)cc2)CC1 | – | – | – | 7.68 | – |
| CN(C)[C@H]1CN(c2ccc(-n3cnc(Nc4cnc(C#N)cn4)c3)cc2)C[C@H]1F | – | 5.50 | – | 7.85 | – |
| Cc1cc(N2CCN(C)CC2)ccc1-n1cnc(Nc2cnc(C#N)cn2)c1 | – | – | – | 6.33 | – |
| CN1CC2(CCN(c3nc(Nc4cn(C(F)F)cn4)cnc3C#N)C2)C1 | > 50 | – | 34 | 7.85 | – |
| CN1CC2(CCN(c3nc(Nc4cn(-c5ccccn5)cn4)cnc3C#N)C2)C1 | > 50 | – | > 50 | 8.70 | – |
| N#Cc1cnc(Nc2cn(-c3ccc(N4CCN(CCF)CC4)cc3)cn2)cn1 | 1.4 | < 5.00 | < 1 | 7.40 | – |
| CN(C)[C@H]1CN(c2ccc(-n3cnc(Nc4cnc(C#N)cn4)c3)cc2)C[C@@H]1F | – | 5.88 | – | 8.30 | – |
| CN1CC2(C1)CN(c1ccc(-n3cnc(Nc4cnc(C#N)cn4)c3)cc1)C2 | – | – | – | 7.51 | – |
| CN(C)[C@]1(C)CCN(c2ccc(-n3cnc(Nc4cnc(C#N)cn4)c3)cc2)C1 | 1.5 | 5.96 | 3.6 | 8.70 | – |
| CN(C)C1CCN(c2ccc(-n3cnc(Nc4cnc(C#N)cn4)c3)cc2)CC1 | 23 | 5.06 | 26 | 7.96 | – |
| CN1CCN(c2ccc(-n3cnc(Nc4cnc(C#N)cn4)c3)cc2)CC1 | 3.7 | < 5.00 | 1.7 | 7.82 | Kp uu at […] [15]: 0.4; microsomal CLint [16]: < 14 µL/min/mg; microsomal CLint [17]: 47 µL/min/mg; Papp A→B at 24 h, 1 µM [18]: 58 ×10⁻⁶ cm/s; solubility kinetic at 2 h, 250 µM [19]: 59 µM (≈ 21.3 µg/mL); pIC50 [20]: < 4.52 |
| C[C@H]1CN(c2ccc(-n3cnc(Nc4cnc(C#N)cn4)c3)cc2)C[C@@H]1N(C)C | – | 5.57 | – | 8.40 | – |
| CCN(C)[C@@H]1CCN(c2ccc(-n3cnc(Nc4cnc(C#N)cn4)c3)cc2)C1 | – | 5.68 | – | 8.40 | – |
| CN1CC2(CCN(c3ccc(-n4cnc(Nc5cnc(C#N)cn5)c4)cc3)C2)C1 | – | < 5.00 | – | 7.92 | – |
| CN(C)C1CN(c2ccc(-n3cnc(Nc4cnc(C#N)cn4)c3)cc2)C1 | – | < 5.00 | – | 8.05 | – |

From ChEMBL document CHEMBL6177977, “Discovery of a Potent, Selective, and Brain-Penetrant Checkpoint Kinase 1 Inhibitor, BEN-28010, for the Treatment of Glioblastoma” (J Med Chem, 2025)
